# Measured values from paper PMC9612231, “Antileishmanial Anthracene Endoperoxides: Efficacy In Vitro, Mechanisms and Structure-Activity Relationships” (Molecules, 2022).
# Tests used:
# [1] = test system: LtP, axenic Leishmania tarentolae amastigotes and Leishmania donovani promastigotes; set-up: method as in PMID 29996524; conditions: read-out: IC50 in viability tests; cited from earlier work
# [2] = test system: Leishmania tarentolae promastigotes (LtP); experiment: Resazurin viability assay for LtP; assay type: cell-based; conditions: Leishmania tarentolae, 48 h, read-out: LtP IC50
# Method: (§1) The influence of AcEP and their analogs (Ac) on the viability of cells was tested in Leishmania tarentolae promastigotes (LtP) and J774 macrophages (Table 2). Based on the changes of viability of the respective cell lines at different compound concentrations, IC50 values were calculated. In Table 2, the IC50 values in both cell lines were compared for the individual compounds. From the ratio of IC50 values in J774 macrophages to IC50 values in LtP, an in vitro selectivity was calculated.
# LtP (strain P10 from Jena Bioscience, Jena, Germany) were cultivated according to manufacturer instructions up to passage 50 in brain heart infusion medium (37 g/L, pH 7.4) and supplemented with 5 mg/L hemin and 25,000 IU/L penicillin and 25 mg/L streptomycin in 50 mL TubeSpin bioreactors (TPP, Trasadingen. Switzerland). LtP were grown at 27 °C in an incubator (Ehret, Emmendingen, Germany) and agitated at a frequency of 0.05 s^−1. […] For experiments, LtP were used one day after passage. The cell number was calculated by measuring the optical density (OD) of the culture at 600 nm with a U-1100 photometer (Hitachi Ltd., Tokyo, Japan) and applying the formula × 10^6 cells/mL = OD600nm × 0.969 × 124 × dilution factor [53].
# Assay medium of YEM (20.7 g/L yeast extract powder, 1.2 g/L K2HPO4, 0.2 g/L KH2PO4, 2.9 g/L glucose, pH 7.4) and PBS (1:1, v/v), 25,000 U/L penicillin, 25 mg/L streptomycin, and 7.7 µM hemin was prepared. Aliquots of 200 µL of this medium and 2 × 10^6 LtP/mL (where required) were distributed in non-treated cell culture 96-well plates. Compounds (dissolved in DMSO) were added with starting concentrations of 25 µM (Pen) or 200 µM (AcEP/Ac), and then, serial dilutions were carried out resulting in a set of concentrations (25, 5, 1, 0.2, 0.04, and 0.008 µM) or (200, 40, 8, 1.6, 0.32, and 0.064 µM). For each compound concentration, at least triplicates on each plate were performed. After incubation of the plates at 27 °C for 48 h, 50 µL of resazurin solution (final concentration in wells 20 µM) was added to each well and after 4 h of incubation, the fluorescence was measured at 560 nm excitation and 590 nm emission using a plate reader (Perkin Elmer EnSpire, Rodgau, Germany) (adapted from). Combination assays for viability in the presence of PIH and NAC were performed the same way. […] All tests were repeated at least on four different weeks of cultivation.
# (§2) Calculations were carried out using Microsoft Excel 2016 (Microsoft). The graphs were created using Origin 6.1 (OriginLab Corporation, Northampton, MA, USA). For all groups of experimental data, mean and standard deviation (SD) were calculated. Statistically significant differences between groups of sample data were identified by unpaired two-tailed Student’s t-test. Differences on the level of p < 0.05 were considered significant. The number of replicates is indicated at the respective figures/tables. The half-maximal inhibitory concentrations (IC50) were determined from non-linear concentration-response curves using a four-parameter logistic model and expressed as the mean ± SD.
# J774 macrophages = experiment: Resazurin viability assay for J774 macrophages; assay type: cell-based, murine; conditions: Mus musculus, J774, 48 h, read-out: J774 IC50, resazurin viability, endpoint 48 h, 10^5 J774 cells/mL, mean ± SD of 4–8 experiments
# Method: as §1
# The murine macrophage cell line J774A.1 (ATCC, TIB-67™, Wesel, Germany) was cultivated up to passage 30 in DMEM (high glucose, 3.7 g/L NaHCO3, pH 7.4) with 25,000 IU/L penicillin, 25 mg/L streptomycin, and 10% FCS (heat-inactivated) in 50 mL TubeSpin bioreactors. J774 cells were incubated at 37 °C and 5% CO2 on a roller culture apparatus (5 rpm) in a Heraeus Cytoperm 8080 incubator (Thermo Electron Corp., Vienna, Austria). To determine the cell count, the cell suspension was re-suspended and diluted 1:2 with phosphate-buffered saline (PBS): 137 mM NaCl, 1.4 mM KH2PO4, 4.3 mM Na2HPO4, and 2.7 mM KCl, pH 7.4. After fixation of the cells by mixing the cell suspension 1:1 with a formaldehyde solution (2%, v/v), aliquots of the resulting suspension were transferred into a standard Neubauer chamber (VWR, Austria) and counted manually using a light microscope (Motic BA310, Vienna, Austria) at a magnification of 40 times. J774 cells were passaged twice a week in a ratio of 1:10.
# DMEM containing 25,000 U/L penicillin, 25 mg/L streptomycin, 10% FCS, and 1 × 10^5 J774/mL was prepared. This mixture (200 µL) was distributed in cell culture-treated 96-well plates, except the control wells which contained only DMEM. The cells were incubated for 24 h at 37 °C and 5% CO2 to allow attachment. Afterwards the medium and non-adherent cells were removed by washing with PBS, and then, 200 µL DMEM was added to attached cells. Compounds dissolved in DMSO were added in starting concentrations of 25 µM (Pen) or 200 µM (AcEP/Ac), and then, serial dilutions were carried out resulting in the same concentration steps as listed for LtP. For each compound concentration triplicates on each plate were performed. […], 50 µL of resazurin solution (final concentration 20 µM) was added, and after 4 h of incubation, the fluorescence was measured at 560 nm excitation and 590 nm emission using a plate reader (Perkin Elmer EnSpire, Rodgau, Germany). All tests were repeated at least on four different weeks of cultivation.
# as §2
SMILES,IC50 [1] [µM],IC50 [2] [µM],IC50 (J774 macrophages) [µM]
"O=C1c2ccccc2C(=O)c2ccccc21 [anthraquinone, reference compound]",> 100,–,–
"c1ccc2cc3ccccc3cc2c1 [Ac, anthracene]",> 100,> 200,> 200
